Measurements published in patent US8679776B2, “Activatable dyes” (University of Massachusetts, priority 2007, dated 2014).
Blank lines part the entries; values can stand above or below the compound they belong to.

How the values were obtained:
[1] = Photoactivation of NVOC-Oxazine 16 in vitro (acetonitrile solution, long-wave UV); type: physicochemical
Text: When novel, non-fluorescent caged dye (16) is irradiated with long-wave UV light (about 360 nm), the NVOC group is photolytically removed, and rapidly decarboxylates to form the oxazine 1 leuco dye (15). The non-fluorescent leuco dye rapidly reacts with oxygen in solution to generate the brightly fluorescent oxazine 1 dye (14). […] In such an evaluation, maximal emission was observed after less than four minutes using a hand-held longwave UV lamp. Irradiation in a fluorescence microscope, with either arc lamp or laser illumination, photoactivates this dye in less than 1 second due to the much higher photon flux through the microscope objective.
Referring to FIGS. 15A and 15B, NVOC-Oxazine 16 was dissolved in acetonitrile (2 mL) and placed in a fluorescence cuvette. The rate of photo-uncaging was monitored by continuous excitation at 365 nm and emission detection at 665 nm in a SPEX Fluoromax-3. Under these conditions, fluorescence activation reached a maximum in approximately two minutes.

[2] = test system: CHO-K1 cells; test: Photoactivation in live mammalian tissue culture cells; type: cell-based
Protocol: Photoactivation of NVOC-MR121 in live CHO-K1 cells before (a) and after (b, c) brief exposure to DAPI-filtered light (˜100 ms). In (b) the field was limited to two cells, while in (c) the entire field was illuminated (40× objective). Cells were imaged with a Cy5 filter set.
Referring to FIGS. 16A (before) and 16B (after photoactivation), CHO-K1 cells were incubated with 1 μM of NVOC-Oxazine 16 for one hour, then imaged on a fluorescence microscope at 40× with a Cy5 filter set (Zeiss Axiovert 200M). […] All of these latent fluorophores are chemically stable in cells, and can be efficiently photoactivated 24 hours after initial incubation.

[3] = target: T1, Transferrin (Homo sapiens, UniProt P02787); test: Labeling of transferrin with caged dye, SDS-PAGE imaged before and after photoactivation; details: for near-IR fluorescence before photoactivation / near-IR fluorescence after photoactivation: 630 nm excitation, 670 nm long pass filter; for near-IR fluorescence after photoactivation: hand-held longwave UV lamp for 1 min
T1 construct: purchased Sigma-Aldrich
T1 sequence (P02787 20-698, species assumed): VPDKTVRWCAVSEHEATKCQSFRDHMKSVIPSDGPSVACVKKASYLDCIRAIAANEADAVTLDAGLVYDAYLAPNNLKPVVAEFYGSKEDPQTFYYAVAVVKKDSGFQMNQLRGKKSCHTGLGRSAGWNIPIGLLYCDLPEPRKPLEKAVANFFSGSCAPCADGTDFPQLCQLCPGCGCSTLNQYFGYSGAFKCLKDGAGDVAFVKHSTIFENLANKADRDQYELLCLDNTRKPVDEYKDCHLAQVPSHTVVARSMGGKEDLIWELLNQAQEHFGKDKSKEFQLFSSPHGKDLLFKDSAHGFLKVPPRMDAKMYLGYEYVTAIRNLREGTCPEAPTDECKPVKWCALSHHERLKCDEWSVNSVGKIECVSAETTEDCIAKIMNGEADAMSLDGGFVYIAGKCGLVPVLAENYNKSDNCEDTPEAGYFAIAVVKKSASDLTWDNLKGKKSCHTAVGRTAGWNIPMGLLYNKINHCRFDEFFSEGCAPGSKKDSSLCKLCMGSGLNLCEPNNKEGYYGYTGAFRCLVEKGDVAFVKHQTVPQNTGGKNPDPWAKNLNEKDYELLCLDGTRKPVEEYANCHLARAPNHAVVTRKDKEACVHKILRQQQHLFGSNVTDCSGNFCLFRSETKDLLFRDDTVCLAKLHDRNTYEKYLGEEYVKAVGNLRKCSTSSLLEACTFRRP
Protocol: FIG. 20 is an SDS-PAGE gel of transferrin labeled with a caged oxazine dye, imaged before and after photoactivation. Transferrin in lanes 1-3 is labeled with NVOC-MR121 (25). Lanes 4-6 are labeled with tetramethyl-rhodamine (TMR).
Transferrin (Sigma-Aldrich®, 5 mg) was dissolved in 0.5 ml of 0.1M NaHCO3, pH 8.3. The caged oxazine dye 25 (0.2 mg) in 0.02 ml of DMSO and added to the transferrin solution and incubated at room temperature for one hour. The labeled protein was separated from the dye on a PD-10 column, and analyzed by SDS-PAGE (FIG. 20). The transferrin conjugate was initially non-fluorescent (FIG. 20a).

maximal emission ([1]; active dye generated by uncaging): about 665 nm
Compound: CCN(CC)c1ccc2nc3ccc(=[N+](CC)CC)cc-3oc2c1.[O-][Cl+3]([O-])([O-])[O-] [oxazine 1, reference compound]

Compound: Bis-NH NVOC-Oxazine [Compound 41]
staining pattern after photoactivation [2]: more diffuse staining

cell permeability [2]: cell-permeable
Compound: NVOC-Oxazine [Compound 16]
cellular fluorescence after brief exposure to DAPI-filtered light ([2]; 1 μM, one hour incubation, 365 nm, <1 second, Cy5 filter set): dramatic increase in cellular fluorescence | time to maximal emission after exposure to long-wave UV light ([1]; acetonitrile solution, hand-held longwave UV lamp, emission about 665 nm): less than four | time for fluorescence activation to reach a maximum ([1]; acetonitrile, continuous excitation at 365 nm, emission detection at 665 nm, SPEX Fluoromax-3): approximately two | time to photoactivate in a fluorescence microscope ([1]; arc lamp or laser illumination through the microscope objective): less than 1 second

Compound: TMR-Tf: transferrin labeled with tetramethyl-rhodamine (TMR) [reference compound]
fluorescence before photoactivation, TMR channel ([3]; SDS-PAGE, 520 nm excitation and 575DF20 filter): readily visible

Compound: transferrin conjugate: transferrin labeled with caged oxazine dye NVOC-MR121 NHS ester 25
near-IR fluorescence before photoactivation ([3]; SDS-PAGE): non-fluorescent | near-IR fluorescence before photoactivation ([3]; SDS-PAGE, listed as labeled transferrin): No near-IR fluorescence is visible | near-IR fluorescence after photoactivation [3]: bright near-IR fluorescence | near-IR fluorescence after photoactivation ([3]; listed as labeled transferrin): brightly fluorescent in the near-IR
